Test results: publication PMC4671318 (Proteins, 2012)

Target: human aldose reductase (AR) (Homo sapiens, UniProt P15121)
Experiment: X-ray crystallography
Assay type: biochemical

O=C(O)COc1cc(F)ccc1C(=S)NCc1ccc(Br)cc1F [compound 594, IDD594]
IC50: 124 ± 10 nM
